According to patent US20250214983A1, “1,3,4-OXADIAZOLE TRIAZOLE COMPOUNDS AS HISTONE DEACETYLASE 6 INHIBITOR, AND PHARMACEUTICAL COMPOSITION COMPRISING THE SAME” (Chong Kun Dang Pharmaceutical Corp., priority 2022, published 2025):

Key:
human recombinant HDAC1 = molecular target: T1, human recombinant HDAC1 (Homo sapiens, UniProt Q13547); assay: HDAC1 enzyme activity inhibition (HDAC Fluorimetric Drug Discovery Kit); type: biochemical; settings: human recombinant HDAC1, Fluor de Lys substrate 10 μM, 30° C. 60 minutes
T1 construct: purchased Enzo Life Science, Inc. BML-SE456
Description: (§1) An experiment was conducted to identify the selectivity of the 1,3,4-oxadiazole triazole compound of the present invention to HDAC6 through an experiment on HDAC1 and HDAC6 enzyme activity inhibition.
(§2) The HDAC enzyme activity was measured with HDAC Fluorimetric Drug Discovery Kit (BML-AK511, 516) of Enzo Life Science, Inc. For the test on the HDAC1 enzyme activity, human recombinant HDAC1 (BML-SE456) was used as an enzyme source and Fluor de Lys®-“SIRT1 (BNL-KI177)” was used as a substrate. A 5-fold dilution of the compound was divided into a 96-well plate, after which 0.3 μg of the enzyme and 10 μM of the substrate were inserted into each well and subjected to reaction at 30° C. for 60 minutes, such that Fluor de Lys® Developer II (BML-KI176) was inserted thereinto and subjected to reaction for 30 minutes and finished. After that, a fluorescence value (Ex 360, Em 460) was measured with a multi-plate reader (Flexstation 3, Molecular Device). An experiment on HDAC6 enzyme was conducted in accordance with the same protocol as in the HDAC1 enzyme activity test method by using human recombinant HDAC6 (382180) of Calbiochem Inc. For final result values, each IC50 value was calculated with GraphPad Prism 4.0 program.

human recombinant HDAC6 = molecular target: T2, human recombinant HDAC6 (Homo sapiens, UniProt Q9UBN7); assay: HDAC6 enzyme activity inhibition (HDAC Fluorimetric Drug Discovery Kit); type: biochemical; settings: HDAC1 versus HDAC6
T2 construct: purchased Calbiochem Inc. 382180
T2 sequence (Q9UBN7 1-1215): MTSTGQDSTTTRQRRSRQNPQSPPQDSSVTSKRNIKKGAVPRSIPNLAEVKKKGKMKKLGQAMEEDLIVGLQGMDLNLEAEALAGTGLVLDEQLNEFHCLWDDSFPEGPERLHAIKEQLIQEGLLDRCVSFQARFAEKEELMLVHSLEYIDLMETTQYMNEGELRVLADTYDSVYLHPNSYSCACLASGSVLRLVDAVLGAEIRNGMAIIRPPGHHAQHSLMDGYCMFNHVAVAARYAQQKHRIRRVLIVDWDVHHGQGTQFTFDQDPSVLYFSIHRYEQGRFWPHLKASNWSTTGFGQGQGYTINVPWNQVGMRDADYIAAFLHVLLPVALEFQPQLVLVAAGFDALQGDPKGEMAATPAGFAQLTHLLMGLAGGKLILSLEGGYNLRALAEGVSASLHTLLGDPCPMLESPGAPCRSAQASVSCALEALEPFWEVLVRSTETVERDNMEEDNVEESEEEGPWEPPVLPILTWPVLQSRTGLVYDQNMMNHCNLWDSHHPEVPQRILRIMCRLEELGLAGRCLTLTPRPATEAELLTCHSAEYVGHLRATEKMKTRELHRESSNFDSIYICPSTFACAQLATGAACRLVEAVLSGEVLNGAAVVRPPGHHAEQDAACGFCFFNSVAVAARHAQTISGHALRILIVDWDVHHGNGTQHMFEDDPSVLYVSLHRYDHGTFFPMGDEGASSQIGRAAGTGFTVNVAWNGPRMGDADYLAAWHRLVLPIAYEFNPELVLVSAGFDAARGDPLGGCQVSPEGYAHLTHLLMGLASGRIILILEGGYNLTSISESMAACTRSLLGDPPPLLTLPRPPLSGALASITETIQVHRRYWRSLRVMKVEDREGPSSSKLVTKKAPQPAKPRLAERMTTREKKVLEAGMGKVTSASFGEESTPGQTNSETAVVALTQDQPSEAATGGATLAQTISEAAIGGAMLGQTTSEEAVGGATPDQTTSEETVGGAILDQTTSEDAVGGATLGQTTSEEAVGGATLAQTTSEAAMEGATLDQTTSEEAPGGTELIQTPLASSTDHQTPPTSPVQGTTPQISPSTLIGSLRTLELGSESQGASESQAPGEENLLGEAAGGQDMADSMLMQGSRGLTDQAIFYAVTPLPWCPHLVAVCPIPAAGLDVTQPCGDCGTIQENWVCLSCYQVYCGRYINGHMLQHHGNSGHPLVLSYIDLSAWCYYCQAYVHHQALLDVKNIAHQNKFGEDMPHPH
Description: as §1, §2

T1 sequence (Q13547 whole entry): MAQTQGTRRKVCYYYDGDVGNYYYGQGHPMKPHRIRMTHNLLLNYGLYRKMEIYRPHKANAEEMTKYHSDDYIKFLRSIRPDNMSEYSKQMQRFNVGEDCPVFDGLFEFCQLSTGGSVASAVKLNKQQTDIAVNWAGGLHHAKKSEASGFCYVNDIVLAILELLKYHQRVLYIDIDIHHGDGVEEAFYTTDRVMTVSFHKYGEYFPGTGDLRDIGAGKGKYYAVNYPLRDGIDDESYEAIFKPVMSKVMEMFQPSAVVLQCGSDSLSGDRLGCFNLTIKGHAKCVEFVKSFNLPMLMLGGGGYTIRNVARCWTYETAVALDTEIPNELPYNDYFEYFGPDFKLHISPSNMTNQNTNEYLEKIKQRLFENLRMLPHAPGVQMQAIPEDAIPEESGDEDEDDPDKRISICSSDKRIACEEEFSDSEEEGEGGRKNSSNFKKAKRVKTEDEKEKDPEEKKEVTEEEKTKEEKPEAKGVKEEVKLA

IC50 (human recombinant HDAC1) | HDAC6 selectivity (fold) (human recombinant HDAC6) | Compound
> 50 µM | 1440 fold | Fc1c(CN2CCCCC2)cccc1-c1cn(Cc2ccc(-c3nnc(C(F)F)o3)cn2)nn1 [Compound 28, 2-(difluoromethyl)-5-(6-((4-(2-fluoro-3-(piperidin-1-ylmethyl)phenyl)-1H-1,2,3-triazol-1-yl)methyl)pyridin-3-yl)-1,3,4-oxadiazole]
> 50 µM | 1424 fold | CN(C)Cc1cc(Cl)cc(-c2cn(Cc3ccc(-c4nnc(C(F)F)o4)cn3)nn2)c1 [Compound 31, 1-(3-chloro-5-(1-((5-(5-(difluoromethyl)-1,3,4-oxadiazol-2-yl)pyridin-2-yl)methyl)-1H-1,2,3-triazol-4-yl)phenyl)-N,N-dimethylmethanamine]
> 50 µM | 1945 fold | FC(F)c1nnc(-c2ccc(Cn3cc(-c4cc(Cl)cc(CN5CCCC5)c4)nn3)nc2)o1 [Compound 32, 2-(6-((4-(3-chloro-5-(pyrrolidin-1-ylmethyl)phenyl)-1H-1,2,3-triazol-1-yl)methyl)pyridin-3-yl)-5-(difluoromethyl)-1,3,4-oxadiazole]
> 50 µM | 1633 fold | CN(C)Cc1cccc(-c2cn(Cc3ccc(-c4nnc(C(F)F)o4)cn3)nn2)c1Cl [Compound 34, 1-(2-chloro-3-(1-((5-(5-(difluoromethyl)-1,3,4-oxadiazol-2-yl)pyridin-2-yl)methyl)-1H-1,2,3-triazol-4-yl)phenyl)-N,N-dimethylmethanamine]
> 50 µM | 1146 fold | FC(F)c1nnc(-c2ccc(Cn3cc(-c4cccc(CN5CCC5)c4Cl)nn3)nc2)o1 [Compound 35, 2-(6-((4-(3-(azetidin-1-ylmethyl)-2-chlorophenyl)-1H-1,2,3-triazol-1-yl)methyl)pyridin-3-yl)-5-(difluoromethyl)-1,3,4-oxadiazole]
> 50 µM | 1792 fold | FC(F)c1nnc(-c2ccc(Cn3cc(-c4cccc(CN5CCCC5)c4Cl)nn3)nc2)o1 [Compound 36, 2-(6-((4-(2-chloro-3-(pyrrolidin-1-ylmethyl)phenyl)-1H-1,2,3-triazol-1-yl)methyl)pyridin-3-yl)-5-(difluoromethyl)-1,3,4-oxadiazole]
> 50 µM | 1160 fold | CC1CCN(Cc2cccc(-c3cn(Cc4ccc(-c5nnc(C(F)F)o5)cn4)nn3)c2Cl)CC1 [Compound 37, 2-(6-((4-(2-chloro-3-((4-methylpiperidin-1-yl)methyl)phenyl)-1H-1,2,3-triazol-1-yl)methyl)pyridin-3-yl)-5-(difluoromethyl)-1,3,4-oxadiazole]
> 50 µM | 2777 fold | Fc1cc(CN2CCC2)cc(-c2cn(Cc3ccc(-c4nnc(C(F)F)o4)cn3)nn2)c1 [Compound 38, 2-(6-((4-(3-(azetidin-1-ylmethyl)-5-fluorophenyl)-1H-1,2,3-triazol-1-yl)methyl)pyridin-3-yl)-5-(difluoromethyl)-1,3,4-oxadiazole]
> 50 µM | 1773 fold | Fc1cc(CN2CCCC2)cc(-c2cn(Cc3ccc(-c4nnc(C(F)F)o4)cn3)nn2)c1 [Compound 39, 2-(difluoromethyl)-5-(6-((4-(3-fluoro-5-(pyrrolidin-1-ylmethyl)phenyl)-1H-1,2,3-triazol-1-yl)methyl)pyridin-3-yl)-1,3,4-oxadiazole]
> 50 µM | 2083 fold | CN(C)Cc1ccc(-c2cn(Cc3ccc(-c4nnc(C(F)F)o4)cn3)nn2)cc1Cl [Compound 41, 1-(2-chloro-4-(1-((5-(5-(difluoromethyl)-1,3,4-oxadiazol-2-yl)pyridin-2-yl)methyl)-1H-1,2,3-triazol-4-yl)phenyl)-N,N-dimethylmethanamine]
> 50 µM | 2183 fold | FC(F)c1nnc(-c2ccc(Cn3cc(-c4ccc(CN5CCC5)c(Cl)c4)nn3)nc2)o1 [Compound 42, 2-(6-((4-(4-(azetidin-1-ylmethyl)-3-chlorophenyl)-1H-1,2,3-triazol-1-yl)methyl)pyridin-3-yl)-5-(difluoromethyl)-1,3,4-oxadiazole]
